# Experiments:
# neprilysin mRNA = assay: In situ hybridization of neprilysin mRNA in hippocampus of ovariectomized rats; assay type: in vivo, rat; conditions: 17β-estradiol pellets, 3 weeks
# Excerpt: Using in situ hybridization we administered antisense probes for each of exons 1, 2, 3, and 4 (R1, R2, R3 and R4, respectively) to the brains of ovariectomized rats, some of which also received estrogen replacement therapy. Adult female Sprague-Dawley rats (approximate weight 300 grams) were used to study the effects of ovariectomy and estradiol supplementation on neprilysin expression levels and activity. In situ hybridization was used to measure neprilysin mRNA levels while a coupled chromogenic assay [Li, C. and Hersh, L. B. Neprilysin: Assay Methods, Purification and Characterization. Methods in Enzymology. 248, 253-263 (1995)] was used to measure neprilysin activity. […]
# Images on autoradiographic film were analyzed with computer-aided densitometry (MCID-M1, Imaging Research, St. Catharines, Ontario, Canada). Optical density values of the [^14C] microscales were obtained and a correlating log-log linear least-squares fit was calculated (r^2>0.99). […] The optical density of each defined region was determined for the neuronal somal layer of area CA1 (stratum pyramidale), CA3 and dentate gyrus (stratum granulosum). Identification of brain regions was determined using the atlas of Paxinos and Watson (G. Paxinos, C. Watson, The rat Brain in Stereotaxic Coordinates, second Edition, Academic Press, Australia, 1986).
# neprilysin = assay: Neprilysin enzyme activity in rat brain tissue lysates, two-step assay; assay type: in vivo; conditions: 17β-estradiol pellets, 3 weeks
# Protocol: Adult female Sprague-Dawley rats (approximate weight 300 grams) were used to study the effects of ovariectomy and estradiol supplementation on neprilysin expression levels and activity. […] Ovariectomy was performed at 13 weeks of age and sham-surgery was performed on littermate animals to provide a control group. For estrogen replacement groups, ovariectomized animals were implanted with 17β-estradiol pellets (Innovative Research of America, Sarasota, Fla., USA). Rats were killed 3 weeks later after implantation. The brains were rapidly removed, quickly frozen over dry ice, and stored at −80° C. until father processing. […] The brains were used either for in situ hybridization or for neprilysin activity measurements as noted above.
# In this assay glutaryl-Ala-Phe-4-methoxy-2-naphthylamide is cleaved to glutaryl-Ala-Ala and Phe-4-methoxy-2-naphthylamide. An aminopetidase is then used to cleave the Phe-4-methoxy-2-naphthylamide releasing fluorescent 4-methoxy-2-naphthylamine which is quantified on a spectrofluorometer.
# The tissue lysates were evaluated for neprilysin enzymatic activity using a two-step chromogenic assay. […] The 4-methoxy-2-naphthylamine was quantified spectrofluorimetrically at an excitation wavelength of 340 nm and an emission wavelength of 425 nm. […]
# [1] = system: primary rat cortical neurons; assay: Neuroprotection / neurotoxicity assay in primary rat cortical neurons; assay type: cell-based
# Protocol: Neurotoxicity assays were performed as described by Estus et. al. (Estus et al. (1997) J Neurosci 17:7736-7745) using embryonic day 18 rat fetuses to establish primary rat cortical neuron cultures. Rat brain cortical cells were initially cultured in AM0 media for 3-5 hrs in 16 well chamber slides (Nalge Nunc International, Rochester, N.Y.) pre-coated with polyethyleneimine at a density of ˜1×10^5 cells per well. The culture was enriched in neurons by replacement of the AM0 media with Dulbecco's modified Eagle's medium (DMEM, Life Technologies, Rockville, Md.) containing 100 units/ml penicillin, 100 μg/ml streptomycin and 2% B27 serum supplement (Life Technologies, Rockville, Md.).
# Cells were treated with Aβ peptides and then fixed with 4% paraformaldehyde for 15 min. at room temperature. After washing the cells with PBS they were then stained with Hoechst 33258 at 1 μg/ml for 10 minutes. Neurons were then visualized by fluorescence microscopy. Those cells with uniformly dispersed chromatin were scored as survivors, while those cells containing condensed chromatin were scored as non-survivors. Readings were typically taken in triplicate with a minimum of 250 neurons scored from each well. Cells treated as described above were visualized using a Nikon microscope equipped with a Hoffman modulation contrast lens. Statistical analysis was performed on the samples using ANOVA.
# To test this, rat cortical neurons were treated with Aβ peptides in the presence and absence of insulysin. Preliminary experiments were performed to obtain a suitable Aβ peptide concentration that would show a significant cytotoxic effect, as there are batch to batch variations in the ability of the Aβ peptides to mediate cytotoxic effects on cells in culture.
# The cell based assay using primary rat cortical neurons was used to determine whether the insulysin cleavage products of the Aβ peptides were themselves neurotoxic. Recombinant insulysin at concentrations ranging from 0.5 to 5000 ng was added simultaneously with the Aβ peptides to the cortical cultures.
# insulysin = biological target: T1, insulysin (Rattus norvegicus, UniProt P35559); assay: Insulysin activity with fluorogenic peptide Abz-[…]-EDDnp; assay type: biochemical; conditions: increasing concentrations of the peptide
# T1 construct: His6 (N); made in house; host or cells: Sf9 cells, baculovirus (pFASTBAC)
# Protocol: Referring to FIG. 16, the effect of increasing the concentration of the peptide dynorphin B-9 on insulysin activity is shown. Insulysin activity was measured with the fluorogenic peptide Abz-[…]-EDDnp (SEQ ID No: 14) in the presence of increasing concentrations of the peptide. This peptide contains the fluorescent […] (Abz) which is internally quenched by the 2,4-dinitrophenyl moiety.
# Referring to FIG. 17, the effect of increasing the concentration of several different peptides on insulysin activity is summarized. Insulysin activity was measured with the fluorogenic peptide Abz-[…]-EDDnp (SEQ ID NO: 14) in the presence of increasing concentrations of the peptide.
# β-endorphin = biological target: T2, β-endorphin (Homo sapiens, UniProt P01189); assay: Insulysin activity determination, disappearance of β-endorphin by HPLC; assay type: biochemical; conditions: 30 μM β-endorphin, 37° C.
# T2 construct: Human β-endorphin1-31; purchased National Institute on Drug Abuse drug supply system
# T2 sequence (P01189 237-267): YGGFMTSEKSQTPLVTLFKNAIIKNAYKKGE
# Protocol: Materials. […] Solutions were prepared by dissolving the peptide in dimethylsulfoxide (DMSO) to give a stock concentration of 200 μM. The peptide stock was lyophilized and stored at −80° C. until use. The aggregation state of Aβ peptide stock solutions was checked by electron microscopy (Ray et al. (2000) Brain Res 853:344-351) and found to be predominantly, if not exclusively, monomeric. For the in vitro reactions with insulysin, a final concentration of 25 μM Aβ1-40 was obtained after bringing the lyophilized peptide into solution with double distilled water. […] Human β-endorphin1-31, obtained from the National Institute on Drug Abuse drug supply system, was dissolved in water to give a stock solution of 300 μM. Trifluoroacetic acid (Sigma Biochemicals, St. Louis, Mo.) was diluted into water to produce a 5% working solution.
# Insulysin activity was assayed by measuring the disappearance of β-endorphin by isocratic reverse phase HPLC (Safavi et al. (1996) Biochemistry 1996 35:14318-14325). A 100 μl reaction mixture containing 40 mM potassium phosphate buffer, pH 7.2, 30 μM β-endorphin, and enzyme was incubated for 15 minutes at 37° C. […] The β-endorphin peak was detected by absorbance at 214 nm using a Waters 484 detector. The reaction was quantitated by measuring the decrease in the β-endorphin peak area.
# [2] = system: rat brain hippocampal neurons; assay: Hippocampal cell survival with Aβ1-42 with or without insulysin; assay type: cell-based
# Excerpt: In order to determine whether the insulysin cleavage of Aβ peptides produces products which in themselves are neurotoxic, we conducted experiments using cultured primary hippocampal cells. […] An inactivated form of insulysin was used as a control.
# Viable cells were detected by microscopy.
# Neuronal survival was estimated as a function of time.
# Aβ1-40 [3] = biological target: T3, Aβ1-40 (Homo sapiens, UniProt P05067); assay: Rate of cleavage of Aβ1-40 by insulysin; assay type: biochemical; parameters: purchased Bachem (Torrance, Calif.); conditions: 25 μM Aβ1-40
# Protocol: Purified insulysin was incubated with 25 μM Aβ1-40 in 40 mM potassium phosphate buffer, pH 7.2, at 37° C. for 1 hour. The reaction products were loaded onto a C4 reverse phase HPLC column and products resolved using a linear gradient of 5 to 75% acetonitrile over 65 minutes. Products were detected by absorbance at 214 nm using a Waters 484 detector and individual product peaks were collected manually. Product analysis was also conducted on an intact reaction mixture in which products were not resolved by HPLC. Products were identified by matrix assisted laser desorption ionization time of flight mass spectrometry (MALDI-TOF-MS). The reaction of insulysin with Aβ1-42 was conducted in a similar manner with products identified by MALDI-TOF-MS directly from reaction mixtures.
# Product peaks corresponding to cleavage at the His^13-His^14, His^14-Gln^15, Phe^19-Phe^20 and Phe^20-Ala^21 positions were observed.
# Aβ1-40 [4] = biological target: T3, Aβ1-40; assay: Aβ1-40 deposition assay onto synthetic amyloid (synthaloid); assay type: biochemical; parameters: purchased Amersham (125I-Aβ); QCB/BioSource (synthaloid plates)
# Protocol: A protocol was used where amyloid beta 1-40 (Aβ1-40) is initially deposited onto a 96 well microtiter plate. Radioactive (^125I labeled) Aβ1-40 is then added to the wells of this plate where it further adds to the Aβ1-40 deposited. This mimics the deposition of Aβ1-40 seen in the brains of Alzheimer patients.
# 96 well plates were pre-coated with Aβ1-40. In the control, 100 pM of ^125I-Aβ1-40 was deposited onto the pre-deposited Aβ1-40 plaque for three hours (lane 1). insulysin was added at concentrations of 500 ng, 50 ng and 5 ng to the wells along with ^125I-Aβ1-40 for three hours (lanes 2 to 4).
# Beta amyloid deposition assays were conducted as described by Esler et. al. (Esler et al. (1997) Nat Biotech 15:268-263). Briefly, 96 well microtiter plates pre-coated with aggregated amyloid β1-40 (QCB/Biosource, Hopkinton, Mass.) were additionally coated with 200 μl of a 0.1% bovine serum albumin solution in 50 mM Tris-HCl, pH 7.5 for 20 minutes to prevent non-specific binding. For measuring Aβ1-40 deposition in the presence or absence of insulysin, a 150 μl solution of 0.1 nM 125I labeled Aβ1-40 in 50 mM Tris-HCl, pH 7.5 was added to the pre-coated well and incubated for four hours. When added, insulysin (0.5 to 500 ng) was placed directly in the well at zero time. The reaction was stopped by washing off excess undeposited radiolabeled Aβ1-40 with 50 mM Tris-HCl, pH 7.5. The radiolabel deposited onto the washed well was counted in a gamma counter. In a variation of this protocol, insulysin was preincubated with ^125 I-Aβ1-40 for 60 minutes and then added to the deposition assay.
# During the progression of Alzheimer's disease monomeric Aβ peptides are deposited onto senile plaques. To test whether insulysin is able to prevent the deposition of the Aβ1-40 peptide, a model system was used in which the deposition of radiolabeled Aβ1-40 onto a synthetic amyloid plaque (synthaloid) is followed (Esler et al. (1999) Methods Enzymol 309:350-74). […]
# pre-aggregated Aβ1-40 = biological target: T4, pre-aggregated Aβ1-40 (Homo sapiens, UniProt P05067); assay: Degradation of pre-aggregated 125I-Aβ1-40 deposited onto synthetic amyloid; assay type: biochemical; conditions: 24 hr incubation with 5 μg of insulysin
# T4 construct: purchased Amersham (125I-Aβ); QCB/BioSource (synthaloid plates)
# Excerpt: During the progression of Alzheimer's disease monomeric Aβ peptides are deposited onto senile plaques. To test whether insulysin is able to prevent the deposition of the Aβ1-40 peptide, a model system was used in which the deposition of radiolabeled Aβ1-40 onto a synthetic amyloid plaque (synthaloid) is followed (Esler et al. (1999) Methods Enzymol 309:350-74). […] We also conducted an experiment in which ^125I-Aβ1-40 was first deposited onto the synthetic amyloid and then treated with insulysin to see if the enzyme could degrade pre-aggregated Aβ1-40.
# T1 sequence (P35559 whole entry): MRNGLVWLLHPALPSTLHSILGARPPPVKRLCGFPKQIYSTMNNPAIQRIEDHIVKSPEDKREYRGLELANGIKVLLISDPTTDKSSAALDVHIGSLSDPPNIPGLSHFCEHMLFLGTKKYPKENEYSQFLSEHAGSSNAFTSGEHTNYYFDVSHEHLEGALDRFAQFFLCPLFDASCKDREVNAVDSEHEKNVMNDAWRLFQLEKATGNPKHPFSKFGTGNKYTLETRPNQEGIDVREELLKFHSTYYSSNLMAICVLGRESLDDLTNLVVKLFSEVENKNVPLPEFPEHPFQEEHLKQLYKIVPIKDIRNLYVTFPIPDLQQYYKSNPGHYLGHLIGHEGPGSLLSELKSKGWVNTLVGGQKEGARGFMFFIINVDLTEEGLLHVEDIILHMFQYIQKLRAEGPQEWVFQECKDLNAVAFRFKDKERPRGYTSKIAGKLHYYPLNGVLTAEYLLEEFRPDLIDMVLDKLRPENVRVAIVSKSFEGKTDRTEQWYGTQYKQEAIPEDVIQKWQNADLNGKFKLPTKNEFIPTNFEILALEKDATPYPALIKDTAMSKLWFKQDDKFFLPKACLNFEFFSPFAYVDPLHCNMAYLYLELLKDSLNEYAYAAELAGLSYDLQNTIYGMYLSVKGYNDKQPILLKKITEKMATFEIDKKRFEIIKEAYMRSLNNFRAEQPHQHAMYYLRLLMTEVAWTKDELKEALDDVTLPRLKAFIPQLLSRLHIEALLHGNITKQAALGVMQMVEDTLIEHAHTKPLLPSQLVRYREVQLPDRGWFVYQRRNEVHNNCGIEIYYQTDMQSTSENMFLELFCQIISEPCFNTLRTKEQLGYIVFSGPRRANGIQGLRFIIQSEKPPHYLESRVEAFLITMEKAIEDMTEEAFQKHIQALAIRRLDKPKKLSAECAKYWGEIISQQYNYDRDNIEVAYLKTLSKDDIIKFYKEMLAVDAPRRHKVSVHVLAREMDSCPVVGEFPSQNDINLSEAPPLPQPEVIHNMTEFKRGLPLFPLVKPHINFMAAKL
compound,measurement,setting,value
"C[C@]12CC[C@@H]3c4ccc(O)cc4CC[C@H]3[C@@H]1CC[C@@H]2O [estrogen, 17β-estradiol]","expression of neprilysin mRNA in the hippocampus, higher than ovariectomized rats without estrogen",neprilysin mRNA,about 300%
same,increase in neprilysin activity in the hippocampus over ovariectomized rats not treated with estrogen,neprilysin,~30%
Aβ1-40: amyloid beta peptide 1-40 (SEQ ID NO: 12) obtained from Bachem [reference compound],loss of cortical neurons,"[1]; 30 μM Aβ1-40, 48 hrs",approximately 70%
"beta endorphin: peptide, insulysin substrate, found to increase insulysin enzymatic activity",effect on insulysin activity,insulysin,increase insulysin enzymatic activity
dynorphin,effect on insulysin activity,insulysin,increase insulysin enzymatic activity
"insulysin: His6-tagged recombinant rat insulysin (insulin degrading enzyme) expressed in Sf9 cells with baculovirus, purified",specific activity,β-endorphin,2.6 μmols/min/mg
same,Aβ1-42 induced cell death of hippocampal cells,"[2]; 10 μM Aβ1-42 (initially monomeric), 400 ng insulin degrading enzyme, 24 hrs",prevented Aβ1-42 induced cell death
same,neuronal survival,"[2]; insulysin added with 25 μM Aβ1-42, up to 12 hours",survival was close to that seen in the control untreated cells
same,rate of cleavage of Aβ1-40,Aβ1-40 [3],1.2 μmols/min/mg enzyme
same,inhibition of deposition of 125I-Aβ1-40,"Aβ1-40 [4]; 50 ng of insulysin, 100 pM 125I-Aβ1-40, three hours",50%
same,amount able to prevent the deposition of radiolabeled Aβ1-40,"Aβ1-40 [4]; insulysin added with 125I-Aβ1-40 (0.1 nM), 4 hr",50 ng
same,amount able to prevent the deposition of radiolabeled Aβ1-40,"Aβ1-40 [4]; insulysin preincubated with 125I-Aβ1-40 for 60 minutes, 4 hr deposition",50 ng
same,amount effective in sparing the neurotoxic effects of Aβ1-42,"[1]; 25 μM Aβ1-42, added simultaneously, 48 hrs",500 ng
same,amount effective in sparing the neurotoxic effects of Aβ1-40,"[1]; 30 μM Aβ1-40, added simultaneously, 48 hrs",50 ng
same,release of radioactivity from deposited 125I-Aβ1-40,pre-aggregated Aβ1-40,no radioactivity was released

# From patent US7807396B2, “Insulin degrading enzyme assays for treatment of alzheimer's disease” (University of Kentucky Research Foundation, priority 2000, dated 2010)
